Assay results: the supplement of paper PMC11061612

How the values were obtained:
[1] = tested on: CAL-148 (Breast Carcinoma); experiment: Bliss excess, mean over the matrix (fraction); higher = more synergy
In short: (§1)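 After 24 hours at 37°C and 5% CO2 in 1536-well plates, cells in DMEM/F12 or RPMI plus 10% FBS received two-drug dose matrices for 72 hours. Viability came from CellTiter-Glo 2.0 luminescence and was scaled as inhibition, anchored at 0 by vehicle wells and at 1 by blank wells. Combination Emax is taken as the second-highest inhibition in the matrix, and Bliss excess as the observed combination effect less EA + EB − EA·EB, with EA and EB the single-agent effects.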

[2] = tested on: CCRF-CEM (T-Lymphoblastic Leukemia); experiment: as above
In short: as §1

[3] = tested on: CaR-1 (Colorectal Carcinoma); experiment: as above
In short: as §1

[4] = tested on: DoTc2-4510 (Cervical Carcinoma); experiment: as above
In short: as §1

[5] = tested on: HCC-78 (Lung Adenocarcinoma); experiment: as above
In short: as §1

[6] = tested on: HO-1-N-1 (Oral Cavity Carcinoma); experiment: as above
In short: as §1

[7] = tested on: HT-1376 (Bladder Carcinoma); experiment: as above
In short: as §1

[8] = tested on: KELLY (Neuroblastoma); experiment: as above
In short: as §1

[9] = tested on: LB831-BLC (Bladder Carcinoma); experiment: as above
In short: as §1

[10] = tested on: LS-180 (Colorectal Carcinoma); experiment: as above
In short: as §1

[11] = tested on: ME-1 (Acute Myeloid Leukemia); experiment: as above
In short: as §1

[12] = tested on: NB10 (Neuroblastoma); experiment: as above
In short: as §1

[13] = tested on: NCI-H82 (Small Cell Lung Carcinoma); experiment: as above
In short: as §1

[14] = tested on: RO82-W-1 (Thyroid Gland Carcinoma); experiment: as above
In short: as §1

[15] = tested on: Ramos-2G6-4C10 (Burkitt's Lymphoma); experiment: as above
In short: as §1

[16] = tested on: TE-15 (Esophageal Squamous Cell Carcinoma); experiment: as above
In short: as §1

[17] = tested on: HOS (Osteosarcoma); experiment: combination Emax (second highest fraction inhibited in the dose matrix, 72 h); higher = more inhibition; extreme values may be limits of the assay
In short: as §1

[18] = tested on: LB831-BLC (Bladder Carcinoma); experiment: as above
In short: as §1

[19] = tested on: LS-180 (Colorectal Carcinoma); experiment: as above
In short: as §1

[20] = tested on: RO82-W-1 (Thyroid Gland Carcinoma); experiment: as above
In short: as §1
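Throughout, for Bliss excess, mean over the matrix: after 72 h of two-drug dosing.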

SMILES | Bliss excess [1] | Bliss excess [2] | Bliss excess [3] | Bliss excess [4] | Bliss excess [5] | Bliss excess [6] | Bliss excess [7] | Bliss excess [8] | Bliss excess [9] | Bliss excess [10] | Bliss excess [11] | Bliss excess [12] | Bliss excess [13] | Bliss excess [14] | Bliss excess [15] | Bliss excess [16] | combination Emax [17] | combination Emax [18] | combination Emax [19] | combination Emax [20]
C[C@@H](Nc1cc(F)cc(F)c1)c1cc(C(=O)N(C)C)cc2c(=O)cc(N3CCOCC3)oc12 [AZD8186] + CC(=O)c1c(C)c2cnc(Nc3ccc(N4CCNCC4)cn3)nc2n(C2CCCC2)c1=O [Palbociclib] (first compound max 10 µM, 7x7, partner max 10 µM) | 0.033 | -0.0167 | -0.0054 | -0.0639 | 0.0329 | 0.0805 | -0.037 | 0.0897 | -0.0414 | 0.0004 | 0.0065 | 0.0425 | -0.0338 | 0.033 | -0.0328 | -0.0044 | 0.336 | 0.398 | 0.624 | 0.27
C[C@@H](Oc1cc(-c2cnn(C3CCNCC3)c2)cnc1N)c1c(Cl)ccc(F)c1Cl [Crizotinib] + CC1=C(C(=CC=C1)Cl)NC(=O)C2=CN=C(S2)NC3=CC(=NC(=N3)C)N4CCN(CC4)CCO [Dasatinib] (first compound max 10 µM, 7x7, partner max 2 µM) | -0.0351 | -0.0055 | 0.0573 | 0.0349 | 0.0887 | 0.0921 | -0.0104 | -0.019 | 0.0269 | -0.0156 | -0.0061 | -0.0423 | -0.0642 | 0.0517 | -0.0216 | -0.0403 | 0.756 | 0.921 | 0.585 | 0.618
C[C@@H](Oc1cc(-c2cnn(C3CCNCC3)c2)cnc1N)c1c(Cl)ccc(F)c1Cl [Crizotinib] + Cn1cnc2c(F)c(Nc3ccc(Br)cc3Cl)c(C(=O)NOCCO)cc21 [Selumetinib] (first compound max 10 µM, 7x7, partner max 10 µM) | -0.0173 | -0.0682 | 0.0092 | -0.0514 | 0.0444 | -0.0087 | -0.0419 | 0.0644 | -0.049 | -0.0236 | 0.0624 | -0.0221 | -0.0702 | -0.0227 | -0.0875 | -0.021 | 0.457 | 0.55 | 0.717 | 0.197
CS(=O)(=O)CCNCc1ccc(-c2ccc3ncnc(Nc4ccc(OCc5cccc(F)c5)c(Cl)c4)c3c2)o1 [Lapatinib] + Cn1cnc2c(F)c(Nc3ccc(Br)cc3Cl)c(C(=O)NOCCO)cc21 [Selumetinib] (first compound max 10 µM, 7x7, partner max 10 µM) | 0.0085 | -0.0051 | 0.0337 | -0.0459 | -0.0196 | 0.145 | 0.0188 | -0.0152 | -0.0344 | 0.0947 | 0.0694 | 0.0376 | -0.0082 | -0.0093 | 0.0139 | -0.0388 | 0.332 | 0.379 | 0.758 | 0.193
O=C(c1cc(Cc2n[nH]c(=O)c3ccccc23)ccc1F)N1CCN(C(=O)C2CC2)CC1 [Olaparib] + CC1(C)CCC(CN2CCN(c3ccc(C(=O)NS(=O)(=O)c4ccc(NCC5CCOCC5)c([N+](=O)[O-])c4)c(Oc4cnc5[nH]ccc5c4)c3)CC2)=C(c2ccc(Cl)cc2)C1 [Venetoclax] (first compound max 10 µM, 7x7, partner max 1 µM) | -0.0581 | -0.0036 | -0.0509 | -0.0462 | -0.0181 | 0.048 | -0.0522 | 0.0744 | -0.0271 | -0.0431 | 0.0436 | -0.0041 | -0.0197 | -0.0277 | -0.0167 | -0.0098 | 0.22 | 0.247 | 0.203 | 0.129
O=C(c1cc(Cc2n[nH]c(=O)c3ccccc23)ccc1F)N1CCN(C(=O)C2CC2)CC1 [Olaparib] + CN(CC[C@H](CSC1=CC=CC=C1)NC2=C(C=C(C=C2)S(=O)(=O)NC(=O)C3=CC=C(C=C3)N4CCC(CC4)[C@H](C5=CC=CC=C5C6=CC=C(C=C6)Cl)O)S(=O)(=O)C(F)(F)F)CCO [AZD4320] (first compound max 10 µM, 7x7, partner max 1 µM) | 0.0335 | 0.0247 | -0.054 | 0.03 | -0.016 | 0.0106 | -0.0572 | 0.134 | -0.0076 | -0.0552 | -0.0216 | -0.0471 | -0.0532 | 0.0031 | -0.0184 | -0.0494 | 0.277 | 0.409 | 0.227 | 0.546
O=C(c1cc(Cc2n[nH]c(=O)c3ccccc23)ccc1F)N1CCN(C(=O)C2CC2)CC1 [Olaparib] + COc1nnc2ccc(N3CCC(c4ccc(OCCN5CCN(C)C(=O)[C@H]5C)cc4)CC3)nn12 [AZD5153] (first compound max 10 µM, 7x7, partner max 1 µM) | -0.0366 | 0.0457 | -0.105 | -0.0755 | -0.0169 | -0.02 | -0.0425 | -0.042 | -0.0889 | -0.0495 | 0.0123 | -0.0558 | -0.0326 | -0.0002 | -0.0473 | -0.0671 | 0.402 | 0.465 | 0.581 | 0.274
O=C(c1cc(Cc2n[nH]c(=O)c3ccccc23)ccc1F)N1CCN(C(=O)C2CC2)CC1 [Olaparib] + Cc1c2c(nn1C)CSCc1cc(n(C)n1)CSc1cc(c3ccccc3c1)OCCCc1c(C(=O)O)n(C)c3c-2c(Cl)ccc13 [AZD5991] (first compound max 10 µM, 7x7, partner max 1 µM) | -0.005 | 0.0053 | -0.0322 | -0.0397 | -0.0244 | 0.0456 | -0.0392 | 0.0826 | -0.0371 | -0.0207 | -0.0085 | -0.0166 | -0.0755 | -0.0375 | 0.0249 | -0.0392 | 0.254 | 0.136 | 0.221 | 0.147
N#Cc1cnc(Nc2cc(NC[C@H]3CNCCO3)c(C(F)(F)F)cn2)cn1 [SRA737] + C=CCn1c(=O)c2cnc(Nc3ccc(N4CCN(C)CC4)cc3)nc2n1-c1cccc(C(C)(C)O)n1 [AZD1775] (first compound max 10 µM, partner max 1 µM) | 0.184 | 0.0688 | -0.0239 | 0.074 | 0.0611 | 0.0976 | 0.0357 | 0.0387 | -0.0446 | 0.0475 | 0.0456 | 0.105 | 0.0115 | -0.0441 | 0.119 | 0.0209 | 0.811 | 0.721 | 0.758 | 0.116
N#Cc1cnc(Nc2cc(NC[C@H]3CNCCO3)c(C(F)(F)F)cn2)cn1 [SRA737] + Nc1ccn([C@@H]2O[C@H](CO)[C@@H](O)C2(F)F)c(=O)n1 [Gemcitabine] (first compound max 10 µM, 7x7, partner max 0.3 µM) | 0.0721 | 0.0316 | -0.0167 | 0.135 | 0.0509 | 0.015 | -0.0059 | 0.0213 | 0.0477 | -0.0884 | 0.0803 | 0.0922 | -0.0231 | -0.0037 | 0.149 | 0.0703 | 0.752 | 0.911 | 0.804 | 0.212
N#Cc1cnc(Nc2cc(NC[C@H]3CNCCO3)c(C(F)(F)F)cn2)cn1 [SRA737] + O=c1[nH]cc(F)c(=O)[nH]1 [5-Fluorouracil] (first compound max 10 µM, 7x7, partner max 20 µM) | 0.0099 | 0.0179 | -0.0495 | -0.0201 | 0.0929 | 0.0623 | -0.0591 | 0.0153 | 0.0113 | -0.053 | -0.0532 | -0.0036 | -0.111 | -0.0283 | -0.0068 | -0.0033 | 0.435 | 0.34 | 0.568 | 0.144
Cc1nc(-c2cn3c(n2)-c2ccc(-c4cnn(C(C)(C)C(N)=O)c4)cc2OCC3)n(C(C)C)n1 [Taselisib] + O=C(Nc1ccc2[nH]nc(-c3ccncc3)c2c1)[C@@H]1CCN(CC(=O)N2CCN(c3ccc(-c4ncccn4)cc3)CC2)C1 [SCH772984] (first compound max 10 µM, 7x7, partner max 5 µM) | 0.103 | 0.124 | 0.0708 | 0.0435 | 0.0886 | 0.0562 | -0.0046 | 0.135 | -0.0305 | 0.0776 | 0.0001 | 0.0751 | -0.0251 | 0.0009 | 0.008 | -0.0011 | 0.564 | 0.641 | 0.867 | 0.193
CC1(C)CCC(CN2CCN(c3ccc(C(=O)NS(=O)(=O)c4ccc(NCC5CCOCC5)c([N+](=O)[O-])c4)c(Oc4cnc5[nH]ccc5c4)c3)CC2)=C(c2ccc(Cl)cc2)C1 [Venetoclax] + CS(=O)(=O)CCNCc1ccc(-c2ccc3ncnc(Nc4ccc(OCc5cccc(F)c5)c(Cl)c4)c3c2)o1 [Lapatinib] (first compound max 1 µM, 7x7, partner max 10 µM) | -0.0237 | 0.0013 | -0.0553 | -0.0509 | -0.0248 | -0.0212 | -0.0404 | 0.0417 | -0.0597 | -0.0428 | 0.0267 | -0.0238 | -0.0384 | -0.0299 | 0.0377 | -0.0478 | 0.13 | 0.202 | 0.298 | 0.144
